Experimental data: a melting point compilation (Tetko et al.; mined from patent text by program, amines drawn as free bases though some values may be those of a salt)

First: Nc1nc2c(ncn2CCC(CO)COC(=O)c2ccccc2)c(=O)[nH]1 (stereo not given)
Second: CCOC(=O)COc1ccccc1-c1nc2n(C3CCCC3)[nH]c(CC)c-2c(=O)n1
The melting point of the first is higher: 156 to 168 °C for the first, 116 to 117 °C for the second.

Compared with `CCCc1[nH]c(=O)[nH]c(=O)c1N1CCN(Cc2ccccc2)CC1`, `O=c1c2c(Cl)cc(Cl)cc2n(Cc2ccccc2)c(=O)n1-c1ccccc1` is lower in melting point: 233 to 235 °C for the first, 169 to 174 °C for the second.

First: CC12CCCc3cc(Nc4ccc(C(=O)O)cc4)cc(c31)CCC2
Second: CC(=O)Nc1ccc(C(=O)c2cc(-c3cccnc3)c(N3CCOCC3)s2)cc1
The melting point of the first is higher: 232 to 234 °C for the first, 120 °C for the second.

First: CCS(=O)(=O)c1nc2c(cc1F)c(=O)c(C(=O)O)cn2C1CC1
Second: Cc1c(F)c(N2CCNCC2)cc2c1c(=O)c(C(=O)O)cn2-c1ccc(F)cc1F
The melting point of the first is higher: 240 to 242 °C for the first, 198 to 200 °C for the second.

Compared with `O=C(O)C(O)CSc1ccc(-c2ccccc2)cc1` (stereo not given), `CS(=O)(=O)c1ccc(C2=C(c3ccccc3)C(=O)OC23CCC3)cc1` is lower in melting point: 176 °C for the first, 159 to 160 °C for the second.

First: CCC1CC(=O)N(Cc2ccc(C(=O)NC3CCCC3)cc2)N=C1c1ccc(OC)c(OC2CCCC2)c1 (stereo not given)
Second: COc1cc2nc(N3CCN(C(=O)NC4CCCC4)CC3)nc(N)c2cc1OC
The melting point of the first is lower: 73 °C for the first, 200 to 202 °C for the second.

First: O=C(NC12CC3CC(CC(C3)C1)C2)c1ccccc1C(c1ccc(O)cc1)c1ccc(O)cc1
Second: O=C(O)CCc1ccc(C(=O)c2c(-c3ccc(O)cc3)sc3cc(O)ccc23)cc1
The melting point of the first is lower: 167 to 169 °C for the first, 244 to 248 °C for the second.

First: O=C(CNC(=O)c1ccc(S(=O)(=O)F)cc1)Nc1cccc(-c2cccc3c2/C(=C/c2ccc[nH]2)C(=O)N3)c1
Second: Cc1cccc(NC(=O)NC2CC(c3ccccc3)c3ccccc3N(CC(=O)NC(C)(C)C)C2=O)c1 (stereo not given)
The melting point of the first is lower: 248 to 250 °C for the first, 263 to 266 °C for the second.

First: COC(=O)[C@H]1C[C@@H](NC(=O)OC(C)(C)C)c2c(Cl)cc(Cl)cc2N1 (relative stereo)
Second: CC(C)(C)OC(=O)n1cnc2c([N+](=O)[O-])cccc21
The melting point of the first is lower: 172 to 173 °C for the first, 249 °C for the second.

First: O=C(O)CCCCC1Cc2ccc(F)cc2C1=O (stereo not given)
Second: CC(=O)c1ccc2c(c1)C(=O)c1ccccc1CN2
The melting point of the first is lower: 122 to 123 °C for the first, 206 to 207 °C for the second.

First: COC(=O)c1cc(S(N)(=O)=O)c(OC)c2c1OCCO2
Second: COC(=O)c1cc2c(OC)ccc(OC)c2[nH]1
The melting point of the first is higher: 202 to 203 °C for the first, 145 to 146 °C for the second.

First: O=c1c2c([nH]c3ccccc13)C(C1Cc3ccccc3O1)N(c1ncc(-c3ccccn3)cn1)C2 (stereo not given)
Second: C(=C(c1ccccc1)c1ccccc1)c1ccc2c(c1)Cc1ccccc1-2
The melting point of the first is higher: 201 to 203 °C for the first, 136 to 138 °C for the second.

First: COC(=O)CCCOc1cc([N+](=O)[O-])c(COc2ccccc2)cc1OC
Second: CC(=O)c1ccc(NS(C)(=O)=O)c(Oc2ccccc2F)c1
The melting point of the first is higher: 96 to 98 °C for the first, 92 to 94 °C for the second.

Going from `CCOc1ccc(F)cc1C(=O)c1sc2nc(C)c(C)cc2c1N` to `Cc1nc(N)nc(N)c1-c1ccc(Cl)cc1Cl`, the melting point rises from 170 °C to 222 °C.

Compared with `CCC(=O)N1C(=S)NC(C)=C(C(=O)OC)C1c1cccc([N+](=O)[O-])c1` (stereo not given), `CCCCc1c(C(=O)c2ccc(O)cc2)sc2ccc([N+](=O)[O-])cc12` is higher in melting point: 167 to 171 °C for the first, 182 °C for the second.

Compared with `COc1ccc2c(cc3n2CCCO3)n1`, `COc1cc2cnn(CCO)c(=O)c2cc1OC` is higher in melting point: 92 to 93 °C for the first, 174 to 176 °C for the second.

First: CC(C)(CO)NS(=O)(=O)c1cc(NC(=O)c2cnn3c(C(F)(F)F)cc(-c4ccc(Cl)cc4)nc23)c(Cl)s1
Second: CCOC(=O)CNc1ncccc1NC(=O)c1ccc(OC)cc1
The melting point of the first is higher: 272 °C for the first, 130 to 131 °C for the second.

Compared with `CC(C)(C)c1cc(-c2nc(CN3CCCC3)no2)cc(C(C)(C)C)c1O`, `CC(C)(C)c1cc(-c2nnc(NN)s2)cc(C(C)(C)C)c1O` is higher in melting point: 100 to 102 °C for the first, 109 to 122 °C for the second.

Compared with `O=[N+]([O-])c1cncn1CCO`, `CCCCOc1coc(CO)cc1=O` is lower in melting point: 101 to 102 °C for the first, 68 to 73 °C for the second.

First: Oc1ccc(N=C2SCCS2)cc1
Second: O=C1C=CC(O)(c2nc3ccccc3s2)C(Sc2ccccc2)C1 (stereo not given)
The melting point of the first is higher: 204 to 208 °C for the first, 66 °C for the second.

First: CC1(C)OC(=O)Nc2ccc(-c3cccc(C#C[Si](C)(C)C)c3)cc21
Second: COc1ccc(-c2c(-c3ccc(S(C)(=O)=O)cc3)n(C)n(C)c2=O)cc1
The melting point of the first is lower: 240 to 242 °C for the first, 245 to 247 °C for the second.

Compared with `CCCCCCCCCCCCCCCCCCOc1cc(OCCCP(=O)(OCC)OCC)cc(C(=O)O)c1`, `CCCCCCCN(Cc1ccc(CCC(C)C)cc1)C(=O)NC1(OC)C=C(C)C=CN1` (stereo not given) is higher in melting point: 53 to 55 °C for the first, 90 to 91 °C for the second.

First: COC(=O)C(=Cc1ccc(OC)c(OC)c1)NC(C)=O
Second: CC(=O)Nc1ccc(CBr)c(C)c1C#N
The melting point of the first is higher: 198 to 200 °C for the first, 152 to 153 °C for the second.

First: N#CCC(CC#N)c1cccnc1
Second: Cn1c(CO)nc2cccnc21
The melting point of the first is lower: 60 to 61 °C for the first, 229 to 231 °C for the second.

First: CNC(=O)[C@H](Cc1ccccc1)NC(=O)[C@H](CC(C)C)N[C@H](CCN(C(=O)OCc1ccccc1)C(=O)OCc1ccccc1)C(=O)OC(C)(C)C
Second: O=C(N[C@H](CCCO)c1nc(-c2ccccc2)c(-c2ccccc2)o1)OCc1ccccc1
The melting point of the first is higher: 95 to 99 °C for the first, 72.3 to 75.1 °C for the second.

First: O=C(C=Cc1c(Cl)cccc1Cl)c1c(Cl)cccc1Cl
Second: O=C(O)C1=Cc2cc(Cl)c(Oc3ccccc3)cc2OC1C(F)(F)F (stereo not given)
The melting point of the first is lower: 124 to 125 °C for the first, 220 to 222 °C for the second.

Compared with `Cn1cccc1C(=O)C(C#N)C(=O)Nc1ccccc1` (stereo not given), `O=C(Nc1ccccc1)C1=C(C(F)(F)F)S(=O)(=O)CCS1(=O)=O` is lower in melting point: 170 to 172 °C for the first, 105 to 108 °C for the second.

First: CCC1(CC)C(=O)N(C(C)(C)CO)CC(C)(C)N1OC(C)(C)C#N
Second: C=CCc1cc(CN2C(=O)CCc3c2ccc(O)c3CC=C)cc(OC)c1O
The melting point of the first is lower: 58 to 66 °C for the first, 159 to 161 °C for the second.

First: COC(=O)C(Cc1ccccc1)Oc1ccc2cc(-c3ccc(-c4ccccc4)[nH]3)ccc2c1 (stereo not given)
Second: C#CC[C@H](c1nc2cccnc2c(=O)n1Nc1ccccc1)N(CCCNC(=O)OCc1ccccc1)C(=O)c1cccc(Cl)c1F
The melting point of the first is higher: 140 to 141 °C for the first, 100 to 102 °C for the second.

Compared with `COc1ccc2c(c1)CCC1C2CCC2(C)C(NC(c3ccccc3)c3ccccc3)CCC12` (stereo not given), `O=c1c2cc(F)c(Cl)nc2n(-c2ccc(F)cc2)c(=O)n1OCc1ccccc1` is higher in melting point: 127 to 129 °C for the first, 208 to 209 °C for the second.

First: CS(=O)c1nn(Cc2cccc(C(F)(F)F)c2)c(N)c1C#N (stereo not given)
Second: CC1=CC(c2cccc(OC(F)(F)F)c2)C2=C(CCCC2=O)N1 (stereo not given)
The melting point of the first is lower: 143 °C for the first, 144 to 146 °C for the second.

First: CONC(=O)CON1C(=O)c2ccccc2C1=O
Second: CC(NC(=O)Cc1cc(F)cc(F)c1)C(=O)C1(N)N=C(N2CCCCC2)c2ccccc2N(C)C1=O (stereo not given)
The melting point of the first is higher: 179 °C for the first, 154 to 160 °C for the second.

First: Fc1cccc(F)c1C1=NC(c2ccc(-c3ccc(C(F)(F)F)cc3)cc2)CO1 (stereo not given)
Second: Cn1cncc1C(O)c1ccc2c(c1)c(-c1cccc(Cl)c1)nc1nnnn12 (stereo not given)
The melting point of the first is lower: 148 to 149 °C for the first, 190 °C for the second.

First: CCCP(=O)(CCC)Cc1ccc(N)cc1
Second: NCCN1CCC(Nc2nc3cncnc3n2Cc2ccc(F)cc2)CC1
The melting point of the first is lower: 104 to 106 °C for the first, 146 °C for the second.

First: Cn1c(=S)n(C)c(=O)n(-c2c(F)cc(Cl)c3ncoc23)c1=O
Second: CC(=O)Nc1c(I)c(NC(C)=O)c(I)c(C(=O)OCC(O)CO)c1I (stereo not given)
The melting point of the first is higher: 209 to 211 °C for the first, 207 °C for the second.
